Measurements reported in ChEMBL document CHEMBL1909046, “DrugMatrix in vitro pharmacology data”.

Legend:
Substance-P receptor = Substance-P receptor (Homo sapiens, UniProt P25103); format: cell membranes, CHO, Membrane; conditions: cho; note: in other assays of this panel Not Active means under 50% inhibition at 10 µM
[1] = DRUGMATRIX: Glutamate, NMDA, Agonism radioligand binding (ligand: [3H] CGP-39653); format: cell membranes, Rattus norvegicus, Wistar, Cerebral cortex, Membrane; conditions: Not Active = under 50% inhibition at 10 µM
[2] = DRUGMATRIX: Interleukin IL-1 radioligand binding (ligand: [125I] interleukin 1beta); format: cell membranes, Membrane; conditions: nih3t3; Not Active = under 50% inhibition at 10 µM
Histamine H2 receptor = Histamine H2 receptor (Homo sapiens, UniProt P25021); format: cell membranes, CHO-K1, Membrane; conditions: cho-k1; note: in other assays of this panel Not Active means under 50% inhibition at 10 µM
Histamine H2 receptor, sequence (P25021 whole entry): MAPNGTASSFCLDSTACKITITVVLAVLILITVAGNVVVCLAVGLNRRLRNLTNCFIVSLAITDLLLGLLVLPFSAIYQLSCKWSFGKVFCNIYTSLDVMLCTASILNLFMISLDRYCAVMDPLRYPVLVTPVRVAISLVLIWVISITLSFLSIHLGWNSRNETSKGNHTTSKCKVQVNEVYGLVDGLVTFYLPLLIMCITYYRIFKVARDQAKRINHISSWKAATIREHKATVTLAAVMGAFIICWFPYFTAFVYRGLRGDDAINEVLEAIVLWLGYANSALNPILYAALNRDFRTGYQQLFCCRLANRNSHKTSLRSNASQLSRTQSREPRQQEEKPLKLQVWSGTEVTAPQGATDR

[3] = DRUGMATRIX: Purinergic P2X radioligand binding (ligand: [3H] alpha, beta-Methylene-ATP); format: cell membranes, Oryctolagus cuniculus, New Zealand albino, Urinary bladder, Membrane; conditions: Not Active = under 50% inhibition at 10 µM
[4] = biological target: T1, Receptor-type tyrosine-protein phosphatase C (Homo sapiens, UniProt P08575); parameters: species or system Escherichia coli;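 note: inhibition of CD45 enzyme activity measured using DiFMUP as substrate; in other assays of this panel Not Active means under 50% inhibition at 10 µM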
T1 sequence (P08575 whole entry): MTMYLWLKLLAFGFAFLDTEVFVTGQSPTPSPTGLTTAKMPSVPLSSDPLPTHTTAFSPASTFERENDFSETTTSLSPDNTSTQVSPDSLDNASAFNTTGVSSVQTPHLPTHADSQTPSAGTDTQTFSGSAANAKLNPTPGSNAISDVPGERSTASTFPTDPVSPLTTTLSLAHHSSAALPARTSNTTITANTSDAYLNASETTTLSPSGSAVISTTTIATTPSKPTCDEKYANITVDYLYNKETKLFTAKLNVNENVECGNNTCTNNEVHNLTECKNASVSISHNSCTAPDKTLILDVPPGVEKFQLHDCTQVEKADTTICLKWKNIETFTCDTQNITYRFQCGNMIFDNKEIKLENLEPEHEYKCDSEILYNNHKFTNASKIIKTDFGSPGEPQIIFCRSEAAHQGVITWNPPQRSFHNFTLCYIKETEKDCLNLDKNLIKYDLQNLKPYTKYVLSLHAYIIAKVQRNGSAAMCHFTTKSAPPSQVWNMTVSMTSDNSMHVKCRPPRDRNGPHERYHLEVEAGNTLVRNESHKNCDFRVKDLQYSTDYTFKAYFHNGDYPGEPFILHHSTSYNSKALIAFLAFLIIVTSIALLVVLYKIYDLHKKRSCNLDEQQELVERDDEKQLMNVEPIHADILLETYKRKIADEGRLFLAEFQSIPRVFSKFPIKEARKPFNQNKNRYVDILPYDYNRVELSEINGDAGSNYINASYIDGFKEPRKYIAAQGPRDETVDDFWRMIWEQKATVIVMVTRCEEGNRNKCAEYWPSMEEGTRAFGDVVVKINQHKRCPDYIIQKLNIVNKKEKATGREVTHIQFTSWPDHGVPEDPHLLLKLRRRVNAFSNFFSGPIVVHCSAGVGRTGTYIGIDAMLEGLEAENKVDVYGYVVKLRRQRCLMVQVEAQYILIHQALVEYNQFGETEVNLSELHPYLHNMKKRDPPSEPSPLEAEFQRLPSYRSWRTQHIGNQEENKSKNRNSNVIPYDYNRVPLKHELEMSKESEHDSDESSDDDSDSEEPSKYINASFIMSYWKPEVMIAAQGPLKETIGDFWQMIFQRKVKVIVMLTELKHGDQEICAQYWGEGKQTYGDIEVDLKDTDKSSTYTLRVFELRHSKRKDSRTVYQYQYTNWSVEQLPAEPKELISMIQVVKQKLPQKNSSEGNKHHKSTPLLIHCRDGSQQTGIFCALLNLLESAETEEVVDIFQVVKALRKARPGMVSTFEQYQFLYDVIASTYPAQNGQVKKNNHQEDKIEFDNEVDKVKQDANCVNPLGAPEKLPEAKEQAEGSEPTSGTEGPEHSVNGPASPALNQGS

[5] = biological target: 5-hydroxytryptamine receptor 2B (Homo sapiens, UniProt P41595); format: cell membranes, CHO-K1, Membrane; conditions: cho-k1; note: in other assays of this panel Not Active means under 50% inhibition at 10 µM
5-hydroxytryptamine receptor 2B, sequence (P41595 whole entry): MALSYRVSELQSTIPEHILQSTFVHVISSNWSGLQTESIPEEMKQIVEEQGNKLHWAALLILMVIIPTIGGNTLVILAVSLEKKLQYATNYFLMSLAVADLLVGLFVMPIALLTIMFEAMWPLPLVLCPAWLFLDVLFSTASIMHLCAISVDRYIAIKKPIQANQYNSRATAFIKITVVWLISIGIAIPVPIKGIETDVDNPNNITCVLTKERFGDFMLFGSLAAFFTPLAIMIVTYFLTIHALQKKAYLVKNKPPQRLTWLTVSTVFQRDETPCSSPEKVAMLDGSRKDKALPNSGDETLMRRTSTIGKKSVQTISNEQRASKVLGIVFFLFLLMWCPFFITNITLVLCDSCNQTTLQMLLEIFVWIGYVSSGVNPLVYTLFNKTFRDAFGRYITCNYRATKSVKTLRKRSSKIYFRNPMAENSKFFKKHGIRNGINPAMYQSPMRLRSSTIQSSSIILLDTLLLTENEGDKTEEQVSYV

[6] = DRUGMATRIX: Phosphodiesterase PDE3 enzyme inhibition (substrate: [3H]cAMP + cAMP); format: tissue-based, Homo sapiens; conditions: platelet; Not Active = under 50% inhibition at 10 µM
Leukotriene C4 synthase = biological target: T2, Leukotriene C4 synthase (Cavia porcellus, UniProt A6XA80); experiment: biochemical; format: tissue-based, Lung
T2 sequence (A6XA80 whole entry): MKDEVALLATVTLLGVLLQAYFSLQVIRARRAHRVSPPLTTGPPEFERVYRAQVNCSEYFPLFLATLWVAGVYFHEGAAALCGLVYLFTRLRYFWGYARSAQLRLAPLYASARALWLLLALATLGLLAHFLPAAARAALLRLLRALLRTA

[7] = biological target: T3, Type-2 angiotensin II receptor (Homo sapiens, UniProt P50052); format: cell-based; conditions: cho-k1; note: in other assays of this panel Not Active means under 50% inhibition at 10 µM
T3 sequence (P50052 whole entry): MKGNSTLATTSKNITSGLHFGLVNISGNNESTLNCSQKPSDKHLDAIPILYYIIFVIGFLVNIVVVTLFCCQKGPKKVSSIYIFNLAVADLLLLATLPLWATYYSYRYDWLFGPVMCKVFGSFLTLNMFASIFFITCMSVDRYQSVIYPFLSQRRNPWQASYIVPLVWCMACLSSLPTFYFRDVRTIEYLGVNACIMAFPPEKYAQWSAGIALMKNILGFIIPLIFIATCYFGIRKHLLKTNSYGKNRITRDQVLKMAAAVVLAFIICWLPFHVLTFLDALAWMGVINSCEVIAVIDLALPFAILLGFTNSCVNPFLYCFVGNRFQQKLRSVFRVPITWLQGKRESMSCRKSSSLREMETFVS

Cytochrome P450 2A6 = biological target: T4, Cytochrome P450 2A6 (Homo sapiens, UniProt P11509); conditions: bti-tn-5b1-4; note: in other assays of this panel Not Active means under 50% inhibition at 10 µM
T4 sequence (P11509 whole entry): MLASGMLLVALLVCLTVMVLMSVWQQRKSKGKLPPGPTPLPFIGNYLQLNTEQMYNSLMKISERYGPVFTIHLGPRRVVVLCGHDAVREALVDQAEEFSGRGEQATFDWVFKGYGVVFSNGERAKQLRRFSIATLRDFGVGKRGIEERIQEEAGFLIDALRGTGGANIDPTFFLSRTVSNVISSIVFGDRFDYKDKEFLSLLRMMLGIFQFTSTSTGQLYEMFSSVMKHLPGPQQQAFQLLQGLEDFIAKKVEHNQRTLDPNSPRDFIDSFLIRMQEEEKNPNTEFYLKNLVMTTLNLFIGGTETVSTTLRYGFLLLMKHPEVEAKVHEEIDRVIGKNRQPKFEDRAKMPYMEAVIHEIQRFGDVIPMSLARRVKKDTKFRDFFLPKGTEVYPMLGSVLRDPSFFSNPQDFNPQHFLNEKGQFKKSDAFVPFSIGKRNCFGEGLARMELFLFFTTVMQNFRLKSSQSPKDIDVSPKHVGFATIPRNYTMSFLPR

Substance-P receptor, sequence (P25103 whole entry): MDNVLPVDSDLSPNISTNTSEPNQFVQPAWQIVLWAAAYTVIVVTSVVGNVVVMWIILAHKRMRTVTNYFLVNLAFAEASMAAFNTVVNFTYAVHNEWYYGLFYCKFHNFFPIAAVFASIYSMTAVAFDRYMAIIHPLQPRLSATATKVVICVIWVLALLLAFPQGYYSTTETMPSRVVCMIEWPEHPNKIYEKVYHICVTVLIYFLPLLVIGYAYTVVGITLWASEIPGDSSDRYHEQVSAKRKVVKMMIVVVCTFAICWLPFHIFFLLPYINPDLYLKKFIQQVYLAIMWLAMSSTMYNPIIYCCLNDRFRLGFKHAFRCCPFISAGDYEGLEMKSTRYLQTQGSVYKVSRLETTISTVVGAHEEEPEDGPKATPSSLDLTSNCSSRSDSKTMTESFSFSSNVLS

CC1CN(c2cc3c(cc2F)c(=O)c(C(=O)O)cn3-c2ccc(F)cc2F)CCN1 (configuration not stated) [TEMAFLOXACIN]
Not Active: IC50 (Substance-P receptor) | IC50 [1] | Ki [1] | IC50 [2] | Ki [2] | IC50 (Histamine H2 receptor) | IC50 [3] | Ki [3] | IC50 [4] | IC50 [5] | IC50 [6] | Ki [6] | IC50 (Leukotriene C4 synthase) | IC50 [7] | IC50 (Cytochrome P450 2A6) | Ki (Cytochrome P450 2A6)

CC(C)(C)NCC(O)c1cc(O)cc(O)c1 (configuration not stated) [TERBUTALINE]
Not Active: IC50 (Substance-P receptor) | IC50 [1] | Ki [1] | IC50 [2] | Ki [2] | IC50 (Histamine H2 receptor) | IC50 [3] | Ki [3] | IC50 [4] | IC50 [5] | IC50 [6] | Ki [6] | IC50 (Leukotriene C4 synthase) | IC50 [7] | IC50 (Cytochrome P450 2A6) | Ki (Cytochrome P450 2A6)

CN(C)[C@@H]1C(O)=C(C(N)=O)C(=O)[C@@]2(O)C(O)=C3C(=O)c4c(O)cccc4[C@@](C)(O)[C@H]3C[C@@H]12 [TETRACYCLINE]
Not Active: IC50 (Substance-P receptor) | IC50 [1] | Ki [1] | IC50 [2] | Ki [2] | IC50 (Histamine H2 receptor) | IC50 [3] | Ki [3] | IC50 [4] | IC50 [5] | IC50 [6] | Ki [6] | IC50 (Leukotriene C4 synthase) | IC50 [7] | IC50 (Cytochrome P450 2A6) | Ki (Cytochrome P450 2A6)

c1ccc2[nH]c(-c3cscn3)nc2c1 [THIABENDAZOLE]
Not Active: IC50 (Substance-P receptor) | IC50 [1] | Ki [1] | IC50 [2] | Ki [2] | IC50 (Histamine H2 receptor) | IC50 [3] | Ki [3] | IC50 [4] | IC50 [5] | IC50 [6] | Ki [6] | IC50 (Leukotriene C4 synthase) | IC50 [7] | IC50 (Cytochrome P450 2A6) | Ki (Cytochrome P450 2A6)

Cc1ccc(C(=O)C(C)CN2CCCCC2)cc1 (configuration not stated) [TOLPERISONE]
Not Active: IC50 (Substance-P receptor) | IC50 [1] | Ki [1] | IC50 [2] | Ki [2] | IC50 (Histamine H2 receptor) | IC50 [3] | Ki [3] | IC50 [4] | IC50 [5] | IC50 [6] | Ki [6] | IC50 (Leukotriene C4 synthase) | IC50 [7] | IC50 (Cytochrome P450 2A6) | Ki (Cytochrome P450 2A6)

NC(CO)(CO)CO [TROMETHAMINE]
Not Active: IC50 (Substance-P receptor) | IC50 [1] | Ki [1] | IC50 [2] | Ki [2] | IC50 (Histamine H2 receptor) | IC50 [3] | Ki [3] | IC50 [4] | IC50 [5] | IC50 [6] | Ki [6] | IC50 (Leukotriene C4 synthase) | IC50 [7] | IC50 (Cytochrome P450 2A6) | Ki (Cytochrome P450 2A6)

CN1[C@@H]2CC[C@H]1C[C@@H](OC(=O)c1c[nH]c3ccccc13)C2 [TROPISETRON]
Not Active: IC50 (Substance-P receptor) | IC50 [1] | Ki [1] | IC50 [2] | Ki [2] | IC50 (Histamine H2 receptor) | IC50 [3] | Ki [3] | IC50 [4] | IC50 [5] | IC50 [6] | Ki [6] | IC50 (Leukotriene C4 synthase) | IC50 [7] | IC50 (Cytochrome P450 2A6) | Ki (Cytochrome P450 2A6)
